Patent US4029671A, “3-[(5-nitro-2-imidazolyl)pyrazol-5-yl]oxamic acid derivatives” (priority 1976, dated 1977)
Converted amounts (≈) assume the structure as drawn.

How the values were obtained:
[1] = test system: Clostridium perfringens 81; assay: microbe, parasite or virus in culture; type: cell-based
[2] = test system: Bacteroides fragilis sp. fragilis 112; assay: Agar dilution susceptibility of anaerobic bacteria (Chart 1); type: cell-based; conditions: Bacteroides fragilis, 24 h, agar dilution, 37° C.; Bacteroides fragilis sp. fragilis 112; read-out: 24 Hr. MIC
[3] = test system: Bacteroides fragilis sp. fragilis 113; assay: as above; type: cell-based; conditions: Bacteroides fragilis, 24 h, agar dilution, 37° C.; Bacteroides fragilis sp. fragilis 113; read-out: 24 Hr. MIC
[4] = test system: Bacteroides fragilis sp. fragilis 62; assay: as above; type: cell-based; conditions: agar dilution, 37° C., Bacteroides fragilis sp. fragilis 62
[5] = test system: Peptostreptococcus anaerobius 1428; assay: as above; type: cell-based; conditions: Peptostreptococcus anaerobius, 1428, 24 h, agar dilution, 37° C.; Peptostreptococcus anaerobius 1428; read-out: 24 Hr. MIC
[6] = test system: Actinomyces israelii W855; assay: as above; type: cell-based; conditions: 24 h, agar dilution, 37° C., read-out: 24 Hr. MIC
[7] = test system: Bacteroides fragilis sp. fragilis 9; assay: as above; type: cell-based; conditions: Bacteroides fragilis, 24 h, agar dilution, 37° C.; Bacteroides fragilis sp. fragilis 9; read-out: 24 Hr. MIC
[8] = test system: Bacteroides melaninogenicus 1856/28; assay: as above; type: cell-based; conditions: agar dilution, 37° C., Bacteroides melaninogenicus 1856/28
[9] = test system: Bacteroides fragilis sp. fragilis 106; assay: as above; type: cell-based; conditions: Bacteroides fragilis, 24 h, agar dilution, 37° C.; Bacteroides fragilis sp. fragilis 106; read-out: 24 Hr. MIC
[10] = test system: Fusobacterium symbiosum 1470; assay: as above; type: cell-based; conditions: Fusobacterium, 1470, 24 h, agar dilution, 37° C.; Fusobacterium symbiosum 1470; read-out: 24 Hr. MIC
[11] = test system: Bacteroides fragilis sp. fragilis 2; assay: as above; type: cell-based; conditions: Bacteroides fragilis, 24 h, agar dilution, 37° C.; Bacteroides fragilis sp. fragilis 2; read-out: 24 Hr. MIC
[12] = test system: Bacteroides vulgatis 1211; assay: as above; type: cell-based; conditions: agar dilution, 37° C., Bacteroides vulgatis 1211
[13] = test system: Bacteroides melaninogenicus 2736; assay: as above; type: cell-based; conditions: 2736, 24 h, agar dilution, 37° C.; Bacteroides melaninogenicus 2736; read-out: 24 Hr. MIC
[14] = test system: Bacteroides fragilis sp. fragilis 110; assay: as above; type: cell-based; conditions: Bacteroides fragilis, 24 h, agar dilution, 37° C.; Bacteroides fragilis sp. fragilis 110; read-out: 24 Hr. MIC
Salmonella typhimurium = assay: Control of infections caused by Salmonella typhimurium in chickens (Chart 2); type: in vivo; conditions: 60 mg./kg. subcutaneous, day-old chicks, 5 per group, 6 days observation
Experimental: The efficacy of the novel compounds in the control of infections caused by Salmonella typhimurium in chickens was evaluated in the following manner. The test was carried out using day-old chicks weighing approximately 35 g. each. The chicks were divided into groups of 5 chicks per each dosage level. A portion of the chicks received the test compound which was suspended in 0.2 ml. of polyethylene glycol 200 and administered subcutaneously in the neck. […] All the chicks were challenged with a 1:200 dilution of a culture of the organism, 0.1 ml. of the dilution being injected into each chick in the leg intramuscularly. […] The test compounds are identified in the same manner as set forth in experiment 1. In the chart, column 1 lists the compounds tested; column 2, the dosage of test compound in mg./kg.; and column 3, the survival ratio.

[15] = test system: Bacteroides fragilis sp. fragilis 103; assay: Agar dilution susceptibility of anaerobic bacteria (Chart 1); type: cell-based; conditions: agar dilution, 37° C., Bacteroides fragilis sp. fragilis 103
[16] = test system: Bacteroides corrodens 1874; assay: as above; type: cell-based; conditions: agar dilution, 37° C., Bacteroides corrodens 1874
[17] = test system: Bacteroides fragilis sp. fragilis 1874; assay: as above; type: cell-based; conditions: agar dilution, 37° C., Bacteroides fragilis sp. fragilis 1874
[18] = test system: Bacteroides fragilis sp. thetaiotaomicron 1438; assay: as above; type: cell-based; conditions: Bacteroides fragilis, 24 h, agar dilution, 37° C.; Bacteroides fragilis sp. thetaiotaomicron 1438; read-out: 24 Hr. MIC
[19] = test system: Bacteroides fragilis sp. vulgatis 1563; assay: as above; type: cell-based; conditions: agar dilution, 37° C., Bacteroides fragilis sp. vulgatis 1563
[20] = test system: Bacteroides fragilis sp. fragilis 1936B; assay: as above; type: cell-based; conditions: agar dilution, 37° C., Bacteroides fragilis sp. fragilis 1936B
[21] = test system: Propionibacterium acnes 79; assay: as above; type: cell-based; conditions: Cutibacterium acnes, 79, 24 h, agar dilution, 37° C.; Propionibacterium acnes 79; read-out: 24 Hr. MIC
[22] = test system: Fusobacterium necrophorum 6054A; assay: as above; type: cell-based; conditions: Fusobacterium necrophorum, 6054A, 24 h, agar dilution, 37° C.; Fusobacterium necrophorum 6054A; read-out: 24 Hr. MIC
[23] = test system: Bacteroides fragilis sp. fragilis 1451; assay: as above; type: cell-based; conditions: Bacteroides fragilis, 24 h, agar dilution, 37° C.; Bacteroides fragilis sp. fragilis 1451; read-out: 24 Hr. MIC
[24] = test system: Eubacterium aerofaciens 1235; assay: as above; type: cell-based; conditions: agar dilution, 37° C., Eubacterium aerofaciens 1235
[25] = test system: Peptococcus asaccharolyticus 1302; assay: as above; type: cell-based; conditions: agar dilution, 37° C.; Peptococcus asaccharolyticus 1302
[26] = Bacteroides fragilis, 24 h, read-out: 24 Hr. MIC

**Q.** For CCOC(=O)C(=O)Nc1c(C#N)c(-c2ncc([N+](=O)[O-])n2C)nn1C [Example 1, N-[4-Cyano-1-methyl-3-(1-methyl-5-nitroimidazol-2-yl)pyrazol-5-yl]oxamic acid, ethyl ester], which MIC ([1]; Clostridium perfringens, 81, 24 h, read-out: 24 Hr. MIC, agar dilution, 37° C.) is on record?
**A.** 0.5 mg/L (≈ 1.44 µM)

**Q.** What about the MIC [2] of the same molecule?
**A.** 0.125 mg/L (≈ 0.36 µM)

**Q.** And the MIC [3]?
**A.** 0.25 mg/L (≈ 0.72 µM)

**Q.** What about the “24 Hr. MIC” value [4] of the same molecule?
**A.** 0.25 mg/L

**Q.** What about the MIC [5] of the same molecule?
**A.** ≤ 0.25 mg/L

**Q.** What about the MIC [6] of the same molecule?
**A.** > 64 mg/L

**Q.** And the MIC [7]?
**A.** 0.25 mg/L (≈ 0.72 µM)

**Q.** What about the “24 Hr. MIC” value [8] of the same molecule?
**A.** 16 mg/L

**Q.** And the MIC [9]?
**A.** 0.125 mg/L (≈ 0.36 µM)

**Q.** What about the MIC [10] of the same molecule?
**A.** ≤ 0.25 mg/L

**Q.** And the MIC [11]?
**A.** 0.25 mg/L (≈ 0.72 µM)

**Q.** What about the MIC ([12]; Bacteroides, 1211, 24 h, read-out: 24 Hr. MIC) of the same molecule?
**A.** ≤ 0.25 mg/L

**Q.** And the MIC [13]?
**A.** ≤ 0.25 mg/L

**Q.** What about the MIC [14] of the same molecule?
**A.** 0.25 mg/L (≈ 0.72 µM)

**Q.** And the “Survival Ratio” value (Salmonella typhimurium)?
**A.** 4/5

**Q.** And the “24 Hr. MIC” value [15]?
**A.** ≤ 0.03 mg/L

**Q.** What about the MIC ([16]; Eikenella corrodens, 1874, 24 h, read-out: 24 Hr. MIC) of the same molecule?
**A.** ≤ 0.25 mg/L

**Q.** What about the “24 Hr. MIC” value [17] of the same molecule?
**A.** 0.06 mg/L

**Q.** And the MIC [18]?
**A.** 0.25 mg/L (≈ 0.72 µM)

**Q.** What about the “24 Hr. MIC” value [19] of the same molecule?
**A.** 0.125 mg/L

**Q.** And the MIC [20, 26]?
**A.** ≤ 0.25 mg/L

**Q.** And the MIC [21]?
**A.** 32 mg/L (≈ 92.1 µM)

**Q.** And the MIC [22]?
**A.** ≤ 0.25 mg/L

**Q.** What about the MIC [23] of the same molecule?
**A.** 0.25 mg/L (≈ 0.72 µM)

**Q.** And the MIC ([24]; Collinsella aerofaciens, 1235, 24 h, read-out: 24 Hr. MIC)?
**A.** 0.5 mg/L (≈ 1.44 µM)

**Q.** And the “24 Hr. MIC” value [25]?
**A.** 1.0 mg/L

**Q.** Which “24 Hr. MIC” value ([1]; agar dilution, 37° C.) does the source give for Cn1nc(-c2ncc([N+](=O)[O-])n2C)c(C#N)c1NC(=O)C(=O)NN [Example 6, 5-[4-Cyano-1-methyl-3-(1-methyl-5-nitroimidazol-2-yl)pyrazol5-yl]semioxamazide] here?
**A.** 0.5 mg/L

**Q.** And the MIC [2]?
**A.** 0.5 mg/L (≈ 1.5 µM)

**Q.** What about the MIC [3] of the same molecule?
**A.** 0.25 mg/L (≈ 0.75 µM)

**Q.** And the MIC [4, 26]?
**A.** 0.5 mg/L (≈ 1.5 µM)

**Q.** What about the MIC [5] of the same molecule?
**A.** ≤ 0.25 mg/L

**Q.** And the MIC [6]?
**A.** > 64 mg/L

**Q.** What about the MIC [7] of the same molecule?
**A.** 0.25 mg/L (≈ 0.75 µM)

**Q.** And the MIC ([8]; Prevotella intermedia, 1856/28, 24 h, read-out: 24 Hr. MIC)?
**A.** 8 mg/L (≈ 24 µM)

**Q.** What about the MIC [9] of the same molecule?
**A.** 0.25 mg/L (≈ 0.75 µM)

**Q.** And the MIC [10]?
**A.** ≤ 0.25 mg/L

**Q.** And the MIC [11]?
**A.** 0.25 mg/L (≈ 0.75 µM)

**Q.** What about the “24 Hr. MIC” value [12] of the same molecule?
**A.** ≤ 0.25 mg/L

**Q.** And the MIC [13]?
**A.** ≤ 0.25 mg/L

**Q.** What about the MIC [14] of the same molecule?
**A.** 0.5 mg/L (≈ 1.5 µM)

**Q.** What about the “Survival Ratio” value (Salmonella typhimurium) of the same molecule?
**A.** 5/5

**Q.** And the MIC [15, 26]?
**A.** 0.06 mg/L (≈ 0.18 µM)

**Q.** What about the “24 Hr. MIC” value [16] of the same molecule?
**A.** ≤ 0.25 mg/L

**Q.** What about the MIC [17, 26] of the same molecule?
**A.** 0.25 mg/L (≈ 0.75 µM)

**Q.** And the MIC [18]?
**A.** 1 mg/L (≈ 3 µM)

**Q.** And the MIC [19, 26]?
**A.** 0.125 mg/L (≈ 0.375 µM)

**Q.** And the “24 Hr. MIC” value [20]?
**A.** ≤ 0.25 mg/L

**Q.** And the MIC [21]?
**A.** 32 mg/L (≈ 96 µM)

**Q.** And the MIC [22]?
**A.** ≤ 0.25 mg/L

**Q.** And the MIC [23]?
**A.** 0.5 mg/L (≈ 1.5 µM)

**Q.** What about the “24 Hr. MIC” value [24] of the same molecule?
**A.** 0.5 mg/L

**Q.** What about the “24 Hr. MIC” value [25] of the same molecule?
**A.** ≤ 0.25 mg/L
